This is an account of results in ChEMBL document CHEMBL1153638, “Prolonged stability by cyclization: Macrocyclic phosphino dipeptide isostere inhibitors of beta-secretase (BACE1)” (Bioorg Med Chem Lett, 2009).

Each structure is given as a SMILES string. Numbered stars: 1 amine (or outer) side, 2 acyl side, 3 side chain; on linkers, the order of the positions; unused ones are H or OH. Square brackets hold non-standard residues; d marks the D form. Peptide text beside a SMILES is read from it. X1 = CC(C)C[C@H](N[*:1])P(=O)(O)C[C@@H](C)C(=O)[*:2]

A word on the IC50: it is the concentration at which inhibition is half-maximal. Low values mean greater potency, high ones weaker potency. Broadly, the half-life is how long it takes for the measured level to halve.

Data set [1] has as its target T1, Beta-secretase 1 (Homo sapiens, UniProt P56817). The experiment in a line: Inhibition of ectodomain of BACE1 secreted from […] cells by fluorimetry. It is filed as cell-based.
A short description of data set [2]: Stability in human serum assessed as half life. It is filed as ADME, cell-free.
Data set [3] in a line: Stability in human serum after 160 mins. To be noted: read-out: Stability. It is filed as ADME, cell-free.
Data set [4] deals with T1, Beta-secretase 1. The experiment in a line: Inhibition of full-domain of BACE1 expressed in […] cells. The data set is classed as cell-based.
A short description of data set [5]: Stability in human serum after 120 mins. The data set is classed as ADME, cell-free. The settings on record: read-out: Stability.

T1 sequence (P56817 whole entry, the tested form may be a part): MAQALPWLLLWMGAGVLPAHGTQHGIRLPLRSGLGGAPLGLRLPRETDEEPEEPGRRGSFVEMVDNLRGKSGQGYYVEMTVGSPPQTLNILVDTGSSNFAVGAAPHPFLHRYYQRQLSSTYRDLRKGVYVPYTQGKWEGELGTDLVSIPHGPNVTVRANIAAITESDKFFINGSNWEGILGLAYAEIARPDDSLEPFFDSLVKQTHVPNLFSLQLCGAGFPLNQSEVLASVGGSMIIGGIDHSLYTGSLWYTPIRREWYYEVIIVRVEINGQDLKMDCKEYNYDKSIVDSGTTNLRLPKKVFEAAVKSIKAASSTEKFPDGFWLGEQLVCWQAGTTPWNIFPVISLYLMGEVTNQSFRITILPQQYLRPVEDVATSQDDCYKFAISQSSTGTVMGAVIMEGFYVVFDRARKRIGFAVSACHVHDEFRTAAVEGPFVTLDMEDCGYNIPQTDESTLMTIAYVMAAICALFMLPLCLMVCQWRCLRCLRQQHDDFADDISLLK

As to `CC(CP(=O)(O)C1CCCCCC[C@H](NC(=O)[C@@H](N)CCC(=O)O)C(=O)N[C@@H](CC(=O)O)C(=O)N1)C(=O)N[C@H](C(=O)N[C@@H](CCC(=O)O)C(=O)N[C@@H](Cc1ccccc1)C(=O)O)C(C)C` (mixture of isomers; form 1), on Beta-secretase 1 [1], half-maximal inhibition (IC50) was put at 47 nM. Besides, in data set [2], the half-life turned out to be 43.9 min. Besides, the remaining at 160 min in data set [3] was found to be 20%. On to `CC(C)C[C@H](NC(=O)[C@@H](N)CCC(=O)O)C(=O)N[C@@H](CC(=O)O)C(=O)N[C@@H](CC(C)C)P(=O)(O)C[C@@H](C)C(=O)N[C@H](C(=O)N[C@@H](CCC(=O)O)C(=O)N[C@@H](Cc1ccccc1)C(=O)O)C(C)C` (H-ELD[X1]VEF-OH), for which, in data set [2], the half-life turned out to be 14.8 min. The compound also displayed an IC50 against Beta-secretase 1 [4] of 12 nM. The remaining at 2 h in data set [5] stood at 20%. `CC(CP(=O)(O)C1CCCCCC[C@H](NC(=O)[C@@H](N)CCC(=O)O)C(=O)N[C@@H](CC(=O)O)C(=O)N1)C(=O)N[C@H](C(=O)N[C@@H](CCC(=O)O)C(=O)N[C@@H](Cc1ccccc1)C(=O)O)C(C)C` (mixture of isomers; form 2): inhibition against Beta-secretase 1 [1] was half-maximal at 320 nM (IC50). On the same count and under the same terms, the value for `CC(CP(=O)(O)C1CCCCCC[C@H](NC(=O)[C@@H](N)CCC(=O)O)C(=O)N[C@@H](CC(=O)O)C(=O)N1)C(=O)N[C@H](C(=O)N[C@@H](CCC(=O)O)C(=O)N[C@@H](Cc1ccccc1)C(=O)O)C(C)C` (mixture of isomers; form 3) was 522 nM; that for `CC(CP(=O)(O)C1CCCCCC[C@H](NC(=O)[C@@H](N)CCC(=O)O)C(=O)N[C@@H](CC(=O)O)C(=O)N1)C(=O)N[C@H](C(=O)N[C@@H](CCC(=O)O)C(=O)N[C@@H](Cc1ccccc1)C(=O)O)C(C)C` (mixture of isomers; form 4) was 808 nM.
